Entries after “also recorded” stand apart in the source; their conditions may differ. Where two headings read alike, the source gives them in different places.
What was measured:
[1] = test system: Candida species (including albicans, glabrata, and tropicalis), as well as other opportunistic fungi; settings: in vitro and in vivo studies; cited from earlier work
[2] = Open-label 3-way crossover clinical pharmacology study: plasma posaconazole pharmacokinetics in fasted healthy subjects (observed values and one-compartment model); format: in vivo, human; settings: for bioavailability / Tmax / Cmax / Mean Cmin (SD) 48 hours after the initial dose / Increase in bioavailability vs regimen A / Change of estimated AUC(I) relative to regimen A: fasted; for bioavailability: model estimate (SE); for AUC(0-t): read-out: Steady-state AUC(0-24 hr); for Cmax: read-out: Mean Cmax (SD)
Excerpt: Men and women, 18 to 45 years of age were recruited for the clinical pharmacology study. Subjects were required to be of normal body weight (within 15% of ideal body weight) and generally in good health. Inclusion criteria included normal electrocardiogram (ECG) and laboratory test results, along with negative drug and pregnancy screens; nonlactating women of childbearing potential were required to use a barrier method of contraception during the study. Exclusion criteria included substance abuse or significant food or drug allergy, donation of blood or use of an investigational drug during the previous 90 days, use of any prescription or over-the-counter drugs other than acetaminophen in the previous 2 weeks, or use of alcohol during the previous 48 hours. Also excluded were subjects with a positive HIV, hepatitis B, or hepatitis C test, as were subjects with is a clinically significant systemic infection during the previous 4 weeks. Subjects who smoked ≧10 cigarettes daily were also excluded. This was an open-label, 3-way crossover study. Subjects who met the entry criteria were confined to the study center at least 12 hours prior to dosing and 48 hours after each dosing regimen. Subjects were discharged from the study site for a 1-week washout period between each arm of the study. Following an overnight fast, each subject received posaconazole as an oral suspension (40 mg/mL), using one of 3 dosing regimens: a single dose of 800 mg (regimen A); 2 doses of 400 mg given 12 hours apart (regimen B); or 4 doses of 200 mg given 6 hours apart (regimen C). Subjects were randomly assigned using a computer-generated random code to 1 of 6 treatment schedules (ABC, ACB, BAC, BCA, CAB, CBA). The oral posaconazole suspension was manufactured and supplied by Schering-Plough Research Institute, Kenilworth, N.J., USA. After dosing with an oral dosing syringe, the oral cavity was inspected to ensure that the subject had swallowed the suspension. Subjects remained fasted for 24 hours after the initial dose. During the first 14 hours, water was provided ad libitum and subjects received IV 1,400 mL D5W/0.5 normal saline at approximately 100 mL/hr as a calorie and fluid source. For regimen A, B, and C, blood samples were collected in heparin-containing tubes at baseline (0 hr) and at 2, 4, 5, 6, 8, 10, 12, 16, 24, and 48 hours after the first dose. For regimen B, blood samples were additionally collected at 14, 17, 18, 20, and 22 hours after the first dose. For regimen C, additional blood samples were collected at 11, 14, 17, 18, 20, 22, 23, 26, 28, and 36 hours after the first dose. Each sample was centrifuged within 15 minutes after collection for 10 minutes at 4° C. and 1,500 g. The resultant plasma was frozen (−20° C.) until assayed. Plasma posaconazole concentrations were quantified using a validated high-performance liquid chromatographic (HPLC) assay with a lower limit of quantitation (LOQ) of 5 ng/mL and a linear range of 5.0 to 5000 ng/mL. The observed values were the maximum plasma concentration (Cmax), time of maximum plasma concentration (Tmax), and the trough plasma concentration at 48 hours after the initial dose of posaconazole (Cmin). Based on previous experience in modeling concentration-time posaconazole data and goodness of fit criteria, a one-compartment oral model with a first-order rate of absorption and first-order rate of elimination was used. The intra-subject error was assumed to be additive, defined as, where Ci,j(t) and Gi,j(t) were the measured and predicted concentrations, respectively, for the j^th subject at time t under the i^th regimen. The predicted concentrations Gi,j(t) following treatments B and C were calculated using the principle of superpositioning, with a lag time equal to the dosing interval (B: 12 hours; C: 6 hours). The error term εi,j(t) was assumed to be N(0, σ^2 ε). Differences in exposure following the three dosage regimens were explored by allowing the bioavailability fraction (F) to differ between regimens. […]

[3] = single daily dose; cited from earlier work
[4] = given with food, rising single dose; cited from earlier work
[5] = Safety and tolerability in the 3-way crossover study (adverse events, vital signs, ECGs, laboratory tests); format: in vivo, human
Experimental: Physical examinations, vital signs, ECGs, and clinical laboratory tests were conducted at screening and at the end of the study (48 hours after the final dosing regimen). Treatment-emergent adverse events were recorded throughout the study. In addition, vital signs were evaluated prior to drug administration and at 24 and 48 hours after the first dose of each regimen.

[6] = Posaconazole pharmacokinetics in bone marrow transplant (BMT) patients, 200 mg q6h for up to 25 days; format: in vivo, human
Experimental: The exposures in the fasted healthy volunteers were confirmed in a study of posaconazole pharmacokinetics in bone marrow transplant (BMT) patients.
Upon extrapolation of model parameters to multiple dosing, the population mean AUC(0-24 hr) value following oral administration of 200 mg of posaconazole four times a day, preferably q 6 hr was estimated to be 12.4 mcg·hr/mL, representing an average plasma concentration of 0.5 mcg/mL. These estimates, based on data from healthy fasted volunteers, are in close agreement with pharmacokinetic data obtained from a study of patients undergoing high-dose chemotherapy and a bone marrow transplant who were orally administered posaconazole 200 mg q6 h for up to 25 days. […] These studies combined with other data form the basis for posaconazole dosing regimens in the clinical efficacy trials for posaconazole.

[7] = 200 mg four times a day, model extrapolated to multiple dosing, healthy fasted volunteers

## CC[C@@H]([C@H](C)O)n1ncn(-c2ccc(N3CCN(c4ccc(OC[C@@H]5CO[C@@](Cn6cncn6)(c6ccc(F)cc6F)C5)cc4)CC3)cc2)c1=O [posaconazole]
[1]
  Antifungal activity: good activity
[2]; 200 mg QID oral
  Average posaconazole plasma concentration: greater than 500 ng/mL
[2]; [7]
  Average plasma concentration: 0.5 µg/mL
  Population mean AUC(0-24 hr): 12400 ng·h/mL
[2]; 400 mg BID oral
  Average posaconazole plasma concentration: greater than 300 ng/mL
[2]; Table 1, one-compartment model
  Absorption constant, Ka, estimate: 0.197 h⁻¹
  Elimination constant, Ke, estimate: 0.045 h⁻¹
[2]; both sexes, human, plasma, oral, 200 mg QID vs 800 mg QD, read-out: Bioavailability fraction F3, regimen C relative to regimen A
  bioavailability: 320 ± 70%
[2]; both sexes, human, plasma, oral, 200 mg, regimen C: 200 mg every 6 h, read-out: Mean Tmax (SD) after the initial dose
  Tmax: 24.2 h
[2]; both sexes, human, plasma, oral, 200 mg, regimen C: 200 mg every 6 h, read-out: Tmax after the final dose
  Tmax: 6.2 h
[2]; both sexes, human, plasma, oral, 400 mg BID vs 800 mg QD, read-out: Bioavailability fraction F2, regimen B relative to regimen A
  bioavailability: 198 ± 35%
[2]; both sexes, human, plasma, oral, 400 mg, regimen B: 400 mg every 12 h, read-out: Mean Tmax (SD) after the initial dose
  Tmax: 16.6 h
[2]; both sexes, human, plasma, oral, 400 mg, regimen B: 400 mg every 12 h, read-out: Tmax after the final dose
  Tmax: 4.6 h
[2]; both sexes, human, plasma, oral, 800 mg, regimen A: 800 mg single dose, read-out: Mean Tmax (SD) after the initial dose
  Tmax: 7.8 h
[2]; both sexes, human, plasma, oral, 800 mg, regimen A: 800 mg single dose, read-out: Tmax after the final dose
  Tmax: 7.8 h
[2]; both sexes, human, plasma, oral, from absorption rate constant, fasting conditions, read-out: Estimated absorption half-life (converted)
  half-life: 3.5 h
[2]; both sexes, human, plasma, oral, from elimination rate constant, read-out: Estimated terminal elimination half-life (converted)
  half-life: 15 h
[2]; both sexes, human, plasma, oral, 200 mg QID, fasted healthy subjects, read-out: AUC (exposure)
  AUC: ~12000 ng·h/mL
[2]; both sexes, human, plasma, oral, one-compartment model, read-out: V/F1 (volume of distribution) estimate
  Vd/F: 4580 L
[2]; both sexes, human, plasma, oral, regimen A 800 mg QD, model extrapolated to multiple dosing
  AUC(0-t): 3900 ng·h/mL
[2]; both sexes, human, plasma, oral, regimen B 400 mg BID, model extrapolated to multiple dosing
  AUC(0-t): 7700 ng·h/mL
[2]; both sexes, human, plasma, oral, regimen B: 400 mg every 12 h (2 doses)
  Cmax: 225 ng/mL
[2]; both sexes, human, plasma, oral, regimen C 200 mg QID, model extrapolated to multiple dosing
  AUC(0-t): 12400 ng·h/mL
[2]; both sexes, human, plasma, oral, regimen C: 200 mg every 6 h (4 doses)
  Cmax: 405 ng/mL
[2]; both sexes, human, plasma, regimen A: 800 mg single oral dose
  Cmax: 137 ng/mL
[2]; fasted subjects, suggested by concentration-time curves
  Dose at which oral absorption is saturable: 200 mg
[2]; one-compartment model, all regimens
  Elimination rate constant: 0.045 h⁻¹
[2]; one-compartment model, fasting conditions, all regimens
  Absorption rate constant: 0.197 h⁻¹
[2]; reference, fixed equal to 1, 800 mg single dose
  F1 (Regimen A) bioavailability fraction: 1.0
[2]; regimen A 800 mg QD, model extrapolated to multiple dosing
  Estimated steady-state average concentration: 162 ng/mL
[2]; regimen A: 800 mg single dose
  Mean Cmin (SD) 48 hours after the initial dose: 50 (+/−26) ng/mL
[2]; regimen B 400 mg BID vs 800 mg single dose
  Increase in bioavailability vs regimen A: 98%
[2]; regimen B 400 mg BID, model extrapolated to multiple dosing
  Estimated steady-state average concentration: 320 ng/mL
[2]; regimen B 400 mg every 12 h
  Change of estimated AUC(I) relative to regimen A: doubled
[2]; regimen B: 400 mg every 12 h
  Mean Cmin (SD) 48 hours after the initial dose: 96 (+/−46) ng/mL
[2]; regimen C 200 mg QID vs 800 mg single dose
  Increase in bioavailability vs regimen A: 220%
[2]; regimen C 200 mg QID, model extrapolated to multiple dosing
  Estimated steady-state average concentration: 517 ng/mL
[2]; regimen C 200 mg every 6 h
  Change of estimated AUC(I) relative to regimen A: tripled
[2]; regimen C: 200 mg every 6 h
  Mean Cmin (SD) 48 hours after the initial dose: 189 (+/−135) ng/mL
[3]
  Increase in oral bioavailability with a high fat meal compared to the fasted state: approximately 4 fold
[4]
  Doses at which absorption saturated: above 800 mg
[5]; 18 subjects, all regimens
  Subjects reporting at least 1 adverse event: 33%
[5]; all regimens
  Changes in vital signs, physical examinations, laboratory values, ECGs: no clinically significant changes; also recorded: unchanged relative to baseline
  Intensity of adverse events: mild in intensity
[5]; regimen C
  Subjects reporting chest pain: 11%
[5]; regimens A and B
  Subjects reporting headache: 11%
[5]; total daily dose 800 mg, regardless of dosing regimen
  Safety and tolerability: safe and well tolerated
[6]; 200 mg q6h for up to 25 days, high-dose chemotherapy and bone marrow transplant patients
  Average steady-state plasma concentration: 0.428 µg/mL
[6]; human, plasma, oral, 200 mg QID, BMT patients, read-out: AUC (exposure)
  AUC: ~11000 ng·h/mL
[6]; human, plasma, oral, 200 mg q6h for up to 25 days, high-dose chemotherapy and bone marrow transplant patients, read-out: AUC(0-24 hr) at steady state
  AUC(0-t): 10600 ng·h/mL
